According to the NIST ThermoML archive (doi:10.1021/acs.jced.8b00975):

Assay: xn = mol fraction of the nth substance listed
Settings: Liquid, Vibrating tube method

C=C(C)C(=O)OCCN(C)C [2-(dimethylamino)ethyl methylpropenoate] + CCCCCO
mass density [kg/m3]
Settings | 100 kPa | 5000 kPa | 10000 kPa | 15000 kPa | 20000 kPa | 25000 kPa | 30000 kPa | 35000 kPa
293.15 K, x1 = 0.0299 | 821.4 | 824.97 | 828.31 | 831.49 | 834.52 | 837.46 | 840.35 | 843.21
293.15 K, x1 = 0.0601 | 827.36 | 830.88 | 834.21 | 837.36 | 840.4 | 843.36 | 846.28 | 849.21
293.15 K, x1 = 0.1006 | 834.83 | 838.39 | 841.73 | 844.91 | 847.96 | 850.92 | 853.82 | 856.7
293.15 K, x1 = 0.2011 | 851.81 | 855.36 | 858.7 | 861.88 | 864.94 | 867.91 | 870.84 | 873.77
293.15 K, x1 = 0.3004 | 866.6 | 870.17 | 873.54 | 876.75 | 879.84 | 882.84 | 885.78 | 888.7
293.15 K, x1 = 0.402 | 879.66 | 883.27 | 886.67 | 889.9 | 893.01 | 896.03 | 899.02 | 902
293.15 K, x1 = 0.4518 | 885.55 | 889.17 | 892.6 | 895.88 | 899.03 | 902.08 | 905.07 | 908.03
293.15 K, x1 = 0.5004 | 890.97 | 894.63 | 898.09 | 901.38 | 904.54 | 907.61 | 910.63 | 913.62
293.15 K, x1 = 0.5486 | 896.13 | 899.78 | 903.24 | 906.53 | 909.71 | 912.79 | 915.83 | 918.85
293.15 K, x1 = 0.601 | 901.42 | 905.08 | 908.55 | 911.86 | 915.05 | 918.14 | 921.18 | 924.2
293.15 K, x1 = 0.7021 | 910.74 | 914.43 | 917.91 | 921.22 | 924.41 | 927.53 | 930.63 | 933.76
293.15 K, x1 = 0.8019 | 918.94 | 922.6 | 926.1 | 929.46 | 932.72 | 935.91 | 939.06 | 942.19
293.15 K, x1 = 0.9008 | 926.27 | 929.96 | 933.48 | 936.87 | 940.15 | 943.35 | 946.5 | 949.63
293.15 K, x1 = 0.9306 | 928.32 | 932.04 | 935.56 | 938.93 | 942.19 | 945.38 | 948.54 | 951.72
293.15 K, x1 = 0.9645 | 930.63 | 934.34 | 937.87 | 941.25 | 944.51 | 947.7 | 950.84 | 953.97
303.15 K, x1 = 0.0307 | 814.24 | 818.14 | 821.74 | 825.07 | 828.2 | 831.19 | 834.07 | 836.92
303.15 K, x1 = 0.0604 | 819.89 | 823.73 | 827.29 | 830.63 | 833.79 | 836.81 | 839.72 | 842.58
303.15 K, x1 = 0.1009 | 827.11 | 830.9 | 834.46 | 837.81 | 841.01 | 844.07 | 847.03 | 849.93
303.15 K, x1 = 0.2025 | 843.87 | 847.62 | 851.18 | 854.56 | 857.79 | 860.91 | 863.93 | 866.88
303.15 K, x1 = 0.3 | 857.94 | 861.71 | 865.28 | 868.68 | 871.95 | 875.13 | 878.24 | 881.32
303.15 K, x1 = 0.3999 | 870.67 | 874.45 | 878.06 | 881.52 | 884.85 | 888.08 | 891.24 | 894.35
303.15 K, x1 = 0.4506 | 876.6 | 880.36 | 883.98 | 887.47 | 890.84 | 894.11 | 897.3 | 900.41
303.15 K, x1 = 0.5037 | 882.4 | 886.19 | 889.83 | 893.35 | 896.76 | 900.07 | 903.29 | 906.44
303.15 K, x1 = 0.5495 | 887.14 | 890.94 | 894.58 | 898.1 | 901.5 | 904.82 | 908.07 | 911.28
303.15 K, x1 = 0.6012 | 892.24 | 896.07 | 899.73 | 903.25 | 906.65 | 909.98 | 913.25 | 916.5
303.15 K, x1 = 0.7014 | 901.28 | 905.16 | 908.86 | 912.4 | 915.83 | 919.2 | 922.54 | 925.89
303.15 K, x1 = 0.8023 | 909.34 | 913.19 | 916.92 | 920.53 | 924.05 | 927.5 | 930.88 | 934.23
303.15 K, x1 = 0.9025 | 916.57 | 920.44 | 924.19 | 927.82 | 931.37 | 934.86 | 938.3 | 941.71
303.15 K, x1 = 0.9307 | 918.44 | 922.34 | 926.12 | 929.8 | 933.38 | 936.89 | 940.33 | 943.73
303.15 K, x1 = 0.9625 | 920.67 | 924.56 | 928.32 | 931.98 | 935.55 | 939.05 | 942.5 | 945.92
313.15 K, x1 = 0.0305 | 806.61 | 810.57 | 814.26 | 817.73 | 821.04 | 824.24 | 827.39 | 830.53
313.15 K, x1 = 0.0602 | 812.04 | 816 | 819.71 | 823.21 | 826.55 | 829.77 | 832.92 | 836.03
313.15 K, x1 = 0.1004 | 819.08 | 823.09 | 826.82 | 830.32 | 833.66 | 836.89 | 840.06 | 843.25
313.15 K, x1 = 0.2011 | 835.38 | 839.35 | 843.09 | 846.64 | 850.04 | 853.32 | 856.53 | 859.71
313.15 K, x1 = 0.2999 | 849.45 | 853.38 | 857.13 | 860.71 | 864.15 | 867.48 | 870.73 | 873.91
313.15 K, x1 = 0.4001 | 862.05 | 866.03 | 869.81 | 873.43 | 876.91 | 880.27 | 883.53 | 886.72
313.15 K, x1 = 0.4514 | 867.85 | 871.88 | 875.71 | 879.36 | 882.87 | 886.24 | 889.51 | 892.71
313.15 K, x1 = 0.498 | 872.93 | 876.96 | 880.8 | 884.47 | 888 | 891.4 | 894.7 | 897.93
313.15 K, x1 = 0.5495 | 878.17 | 882.25 | 886.12 | 889.81 | 893.35 | 896.76 | 900.07 | 903.31
313.15 K, x1 = 0.5984 | 882.9 | 887.01 | 890.9 | 894.6 | 898.15 | 901.58 | 904.91 | 908.18
313.15 K, x1 = 0.7004 | 892.03 | 896.09 | 900.01 | 903.79 | 907.43 | 910.93 | 914.29 | 917.51
313.15 K, x1 = 0.8001 | 900.15 | 904.24 | 908.18 | 911.97 | 915.62 | 919.14 | 922.52 | 925.76
313.15 K, x1 = 0.8995 | 907.42 | 911.49 | 915.45 | 919.28 | 922.99 | 926.57 | 930.03 | 933.36
313.15 K, x1 = 0.9328 | 909.62 | 913.75 | 917.76 | 921.63 | 925.35 | 928.93 | 932.36 | 935.63
313.15 K, x1 = 0.9616 | 911.53 | 915.62 | 919.61 | 923.5 | 927.26 | 930.88 | 934.33 | 937.6
